{
  "source": "patent US20160115542A1",
  "about": "“BIOMARKER OF Nrf2 ACTIVATION” (MOCHIDA PHARMACEUTICAL CO., LTD., priority 2013, published 2016)",
  "key": {"[1]": {"tested_on": "HFD-induced insulin resistance and obesity", "settings": "cited from earlier work"}, "[2]": {"tested_on": "type 2 diabetes model rats", "settings": "cited from earlier work"}, "FGF21 [3]": {"tested_on": "FGF21", "experiment": "FGF21 induction by administration of Nrf2 activator in diabetic db/db mice (plasma ELISA, hepatic qPCR)", "format": "in vivo, mouse", "settings": "oral 10 mg/kg once a day for 1 week", "description": "(§1) FGF21 plasma concentration was measured using mouse/rat FGF21 Quantikine ELISA Kit (R & D Systems, Minneapolis, Minn., USA).\n(§2) Total RNA was extracted from liver tissue using Isogen RNA extract kit (Nippon Gene), and reverse-transcribed to cDNA using SuperScript III (Invitrogen). Quantitative real-time PCR (qPCR) was carried out using TaqMan probes using an ABI 7300 system (Applied Biosystems). Relative expression of genes was normalized against Hprt (hypoxanthine guanine phosphoribosyl transferase) mRNA. The following primers and probes were used: […]\nUsing spontaneous diabetic db/db mice, plasma FGF21 concentration and hepatic Fgf21 gene expression level were compared after administration of the Nrf2 activator. CDDO-Im was used as the Nrf2 activator, and orally administered in 10 mg/kg, once a day for 1 week. Blood and tissue were collected under isoflurane anesthesia after certain hours from the administration, and plasma FGF21 concentration and hepatic Fgf21 mRNA expression level were measured in the same manner as in the method described in (1-2)."}, "Nqo1": {"tested_on": "Nqo1", "experiment": "Time-course of hepatic Nqo1 gene expression after single Nrf2 activator administration", "format": "in vivo, mouse", "settings": "db/db mice, single oral administration 30 μmol/kg", "description": "as §2\n(§3) CDDO-Im was used as the Nrf2 activator, and orally administered to db/db mice in 30 μmol/kg. Blood and tissue were collected under isoflurane anesthesia after certain hours from the administration, and expression of the Nrf2 target gene Nqo1 in liver and plasma FGF21 concentration were measured in the same manner as in the method described in (1-2). The following primers and probes were used: […]"}, "FGF21 [4]": {"tested_on": "FGF21", "experiment": "Time-course of plasma FGF21 concentration after single Nrf2 activator administration", "format": "in vivo, mouse", "settings": "db/db mice, single oral administration 30 μmol/kg", "description": "as §1, §3"}, "mouse Fgf21 reporter": {"tested_on": "mouse Fgf21 reporter", "experiment": "FGF21 promoter (mouse Fgf21 reporter) luciferase assay in Hepa1 cells", "format": "cell-based", "settings": "100 nM, 48 hours", "description": "Cloning of the mouse FGF21 promoter region was performed using a known technique. By using the mouse Fgf21 […] sequence as a template, a sequence (about 2.1 kbp) amplified with the primers 1.1 and 1.2 below was cloned into pGL4.15 vector (Promega) to create a mouse Fgf21 reporter vector.\nThe mouse Nrf2 cDNA sequence was cloned into pcDNA3.1/V5-His B vector (Invitrogen) to create a mouse Nrf2 expression vector.\nMouse hepatoma cells Hepa1c1c7 (Hepa1) were cultured in Dulbecco's Modified Eagle medium (Wako) supplemented with 10% fetal bovine serum, and 1% penicillin-streptomycin (Gibco). The mouse Fgf21 reporter vector and mouse Nrf2 expression vector, or the mouse Fgf21 reporter vector and an empty vector (mock) were transfected into Hepa1 cells using Lipofectamine 2000 Transfection Reagent (Invitrogen). The cells were cultured for 6 hours, and the medium was removed. The cells were further cultured for 48 hours after adding a medium containing 100 nM of Nrf2 activator CDDO-Im (2-cyano-3,12-dioxooleana-1,9(11)-dien-28-oic acid imidazol) or 0.1% dimethylsulfoxide (vehicle; Wako). Luciferase activity was then measured using a luminometer (Berthold)."}, "[5]": {"tested_on": "high-fat-diet (HFD)-induced obesity", "settings": "repetitive administration; cited from earlier work"}, "[6]": {"tested_on": "STZ-induced type 1 diabetic mice", "settings": "cited from earlier work"}, "[7]": {"tested_on": "HFD-induced obesity model and diabetic db/db model mice", "settings": "cited from earlier work"}},
  "data": [
    {"smiles": "Cc1c(-c2cnccn2)ssc1=S", "note": "[oltipraz]", "values": [
      {"measurement": "HFD-induced insulin resistance and obesity", "setting": "[1]", "value": "attenuates"}
    ]},
    {"smiles": "O=C(/C=C/c1ccc(O)c2c1[C@H](C(=O)O[C@H](Cc1ccc(O)c(O)c1)C(=O)O)[C@@H](c1ccc(O)c(O)c1)O2)O[C@H](Cc1ccc(O)c(O)c1)C(=O)O", "note": "[lithospermic acid B (LAB), lithospermic acid B]", "values": [
      {"measurement": "β cell injury", "setting": "[2]", "value": "protected β cell injury"}
    ]},
    {"smiles": "CC1(C)CC[C@]2(C(=O)n3ccnc3)CC[C@]3(C)[C@H](C(=O)C=C4[C@@]5(C)C=C(C#N)C(=O)C(C)(C)[C@@H]5CC[C@]43C)[C@@H]2C1", "note": "[CDDO-Im, 1-[2-cyano-3,12-dioxooleana-1,9(11)-dien-28-oyl]imidazole]", "values": [
      {"measurement": "induction of hepatic FGF21 gene expression level in Nrf2 gene knockout db/db mice", "setting": "FGF21 [3]; Nrf2 gene knockout db/db mice", "value": "abolished"},
      {"measurement": "induction of plasma FGF21 concentration in Nrf2 gene knockout db/db mice", "setting": "FGF21 [3]; Nrf2 gene knockout db/db mice", "value": "abolished"},
      {"measurement": "hepatic FGF21 gene expression level", "setting": "FGF21 [3]; db/db mice, vs vehicle", "value": "significantly increased"},
      {"measurement": "plasma FGF21 concentration", "setting": "FGF21 [3]; db/db mice, vs vehicle", "value": "significantly increased"},
      {"measurement": "Nqo1 gene expression in liver", "setting": "Nqo1", "value": "increased"},
      {"measurement": "time for which increased hepatic Nqo1 expression level was sustained after administration", "setting": "Nqo1", "value": 48, "unit": "h"},
      {"measurement": "plasma FGF21 concentration", "setting": "FGF21 [4]", "value": "increased"},
      {"measurement": "time postdose until which increased plasma FGF21 concentration was maintained", "setting": "FGF21 [4]", "value": 48, "unit": "h"},
      {"measurement": "luciferase activity enhancement compared with the vehicle", "setting": "mouse Fgf21 reporter; Fgf21 reporter + empty vector (mock)", "value": "about 2 fold"},
      {"measurement": "luciferase activity with transfection of mouse Nrf2 expression vector and addition of compound", "setting": "mouse Fgf21 reporter; Fgf21 reporter + mouse Nrf2 expression vector", "value": "further increased"},
      {"measurement": "high-fat-diet (HFD)-induced obesity", "setting": "[5]", "value": "prevents"}
    ]},
    {"smiles": "C[S+]([O-])CCCCN=C=S", "note": "(stereo not drawn) [sulforaphane]", "values": [
      {"measurement": "β cell injury", "setting": "[6]", "value": "protected β cell injury"}
    ]},
    {"smiles": "COC(=O)[C@]12CCC(C)(C)C[C@H]1[C@H]1C(=O)C=C3[C@@]4(C)C=C(C#N)C(=O)C(C)(C)[C@@H]4CC[C@@]3(C)[C@]1(C)CC2", "note": "[CDDO-Me, 2-cyano-3,12-dioxooleana-1,9(11)-dien-28-oic acid methyl ester]", "values": [
      {"measurement": "blood glucose level and plasma lipid level", "setting": "[7]", "value": "reduce"}
    ]}
  ]
}
